Measured values published in US12195427B2, “MASP-2 inhibitors and methods of use” (priority 2018, dated 2025).

Biological target: MASP-2 CCP2-SP (Homo sapiens (Human), UniProt O00187)
Assay: MASP-2 co-crystallization, X-ray crystallography and structure analysis (H-bonds, van der Waals contacts);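 for Ligand-pharmacophore element distance, pharmacophore element C2: distance from averaged pharmacophore element to bound ligand; missing value means element absent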;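 for Ligand-pharmacophore element distance, pharmacophore element C3: distance from averaged pharmacophore element to bound ligand; missing value means element absent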;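 for Ligand-pharmacophore element distance, pharmacophore element C4: distance from averaged pharmacophore element to bound ligand; missing value means element absent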;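 for Ligand-pharmacophore element distance, pharmacophore element C5: distance from averaged pharmacophore element to bound ligand; missing value means element absent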
Design: van der Waals contact distance, MASP-2 HIS 483 atom CD2 / van der Waals contact distance, MASP-2 HIS 483 atom NE2 / van der Waals contact distance, SER 654 C to compound atom / van der Waals contact distance, SER 654 O to compound atom / van der Waals contact distance, TRP 655 C to compound atom / van der Waals contact distance, MASP-2 GLY 528 atom CA / van der Waals contact distance TRP 655 atom CZ3 / van der Waals contact distance TRP 655 atom N / van der Waals contact distance TRP 655 atom CE3 / van der Waals contact distance GLY 656 atom C / van der Waals contact distance GLY 656 atom CA / van der Waals contact distance GLY 656 atom O / van der Waals contact distance, MASP-2 TYR 607 atom CD1 / van der Waals contact distance, MASP-2 PRO 606 atom O / d(C3,CA1) / d(CA1,N1)2 / d(H4,O1) / d(H4,O2) / d(O1,O2) / d(CA1,O2) / d(CA6,O1) / d(CA6,O2) / d(CA1,C5) / d(O2,H3) / d(N2,C2) / d(CA5,N2) / d(N2,C4) / d(N2,C6) / d(N2,CA3) / d(N2,O3) / d(O4,H2): unit not given beside the values
Details: for Ligand-pharmacophore element distance, pharmacophore element C2 / Ligand-pharmacophore element distance, pharmacophore element C3 / Ligand-pharmacophore element distance, pharmacophore element C4 / Ligand-pharmacophore element distance, pharmacophore element C5 / Ligand-pharmacophore element distance, pharmacophore element C6 / Ligand-pharmacophore element distance, pharmacophore element C7 / Ligand-pharmacophore element distance, pharmacophore element CA1 / Ligand-pharmacophore element distance, pharmacophore element CA2 / Ligand-pharmacophore element distance, pharmacophore element CA3 / Ligand-pharmacophore element distance, pharmacophore element CA4 / Ligand-pharmacophore element distance, pharmacophore element CA5 / Ligand-pharmacophore element distance, pharmacophore element CA6: Table A4-1; for d(N2,C2) / d(N2,CA2) / d(O2,H3) / d(O2,N2): Table A5-2 pharmacophore distance, S3/S4 region; for a(O1, O2, H3) / a(O1, O2, N2) / a(O2, N2, C2) / a(O2, N2, CA2): Table A6-2 pharmacophore angle
How it was run: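 Contacts and H-bonds come from partially refined soaked-crystal structures of recombinant human CCP2-SP made in E. coli, solved by molecular replacement against 1Q3X fragments. Where several ligand poses appeared, only one was analysed; listed nonbonded contacts may include possible H-bond pairings.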

[1] = Table A5-1 pharmacophore: distance between elements, S2/S1 region
[2] = Table A7-1, between pharmacophore elements of the bound compound
[3] = Table A7-2, between pharmacophore elements of the bound compound

Chain of MASP-2 CCP2-SP (O00187 445-686): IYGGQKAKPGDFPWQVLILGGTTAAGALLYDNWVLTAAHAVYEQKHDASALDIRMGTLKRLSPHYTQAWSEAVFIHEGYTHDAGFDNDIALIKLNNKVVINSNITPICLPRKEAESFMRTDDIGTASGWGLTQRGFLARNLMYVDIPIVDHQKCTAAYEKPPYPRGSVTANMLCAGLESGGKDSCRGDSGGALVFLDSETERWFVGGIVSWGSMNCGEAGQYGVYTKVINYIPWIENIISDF
Chain of MASP-2 CCP2-SP (O00187 364-432 partner): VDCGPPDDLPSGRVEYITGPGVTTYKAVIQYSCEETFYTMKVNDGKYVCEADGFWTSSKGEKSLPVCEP

Compound	Ligand-pharmacophore element distance, pharmacophore element C2	Ligand-pharmacophore element distance, pharmacophore element C3	Ligand-pharmacophore element distance, pharmacophore element C4	Ligand-pharmacophore element distance, pharmacophore element C5	Ligand-pharmacophore element distance, pharmacophore element C6	Ligand-pharmacophore element distance, pharmacophore element C7	Ligand-pharmacophore element distance, pharmacophore element CA1	Ligand-pharmacophore element distance, pharmacophore element CA2	Ligand-pharmacophore element distance, pharmacophore element CA3	Ligand-pharmacophore element distance, pharmacophore element CA4	Ligand-pharmacophore element distance, pharmacophore element CA5	Ligand-pharmacophore element distance, pharmacophore element CA6	d(CA1,O1) [1]	d(CA1,O2) [1]	d(H4,O1) [1]	d(H4,O2) [1]	d(O1,O2) [1]	d(N2,C2)	d(N2,CA2)	d(O2,H3)	other results
C[C@H](NC(=O)[C@H]1C[C@@H](c2ccccc2)CCN1)C(=O)NCc1cc(Cl)ccc1O.Cl [1078_16]	0.64	0	0	0.42	0	0	1.49	0.49	0	0	0	0	4.42	4.54	2.20	2.69	3.11	1.49	5.80	2.96	d(CA1,C5) [1]: 3.13; d(CA1,O4) [1]: 2.74; d(O4,H2) [1]: 0.97; d(O2,N2): 2.90; a(C5, CA1, O1) (Table A6-1 pharmacophore angle): 161.46; a(CA1, O1, O2) (Table A6-1 pharmacophore angle): 112.44; a(CA1, O4, H2) (Table A6-1 pharmacophore angle): 126.68; a(O1, CA1, O4) (Table A6-1 pharmacophore angle): 67.40; a(O1, O2, H4) (Table A6-1 pharmacophore angle): 101.76; a(O1, O2, H3): 140.06; a(O1, O2, N2): 144.54; a(O2, N2, C2): 122.62; a(O2, N2, CA2): 154.31; Pharmacophore torsion angle a(C5, CA1, O1, H4) [2]: 14.30; Pharmacophore torsion angle a(H4, O1, O2, H3) [2]: −119.50; Pharmacophore torsion angle a(H4, O1, O2, N2) [2]: −111.94; Pharmacophore torsion angle a(O1, H4, O2, CA1) [2]: −58.07; Pharmacophore torsion angle a(O1, O2, N2, C2) [2]: 136.30; Pharmacophore torsion angle a(O1, O2, N2, CA2) [3]: 139 28
Cc1nc(N)ccc1CNC(=O)[C@H](C)NC(=O)[C@H]1C[C@@H](c2cccc3ccccc23)CCN1.Cl.Cl [1297_2]	0.34	0.17	0	0	0	0	0.47	0.22	0	1.25	0	0	4.48	3.69	4.41	3.62	3.57	1.47	5.78	3.98	d(C3,CA1) [1]: 2.88; d(CA1,N1)2 [1]: 1.37; d(O2,N2): 2.84; a(C3, CA1, O1) (Table A6-1 pharmacophore angle): 150.01; a(CA1, O1, O2) (Table A6-1 pharmacophore angle): 103.93; a(O1, O2, H4) (Table A6-1 pharmacophore angle): 128.26; a(N1, CA1, O1) b) (Table A6-1 pharmacophore angle, Methyl-amino-pyridine compounds): 174.54; a(O1, O2, H3): 144.48; a(O1, O2, N2): 141.45; a(O2, N2, C2): 127.48; a(O2, N2, CA2): 154.79; Pharmacophore torsion angle a(C3, CA1, O1, H4) [2]: 29.10; Pharmacophore torsion angle a(H4, O1, O2, H3) [2]: 51.75; Pharmacophore torsion angle a(H4, O1, O2, N2) [2]: 141.21; Pharmacophore torsion angle a(N1, CA1, O1, H4) [2]: 23.27; Pharmacophore torsion angle a(O1, H4, O2, CA1) [2]: −87.24; Pharmacophore torsion angle a(O1, O2, N2, C2) [2]: 116.16; Pharmacophore torsion angle a(O1, O2, N2, CA2) [3]: 126.84; Pharmacophore torsion angle a(O1, O2, N2, CA4) [3]: 106.20
